Assay results published in patent US11246871B2, “Targeting adenosine A2A receptors for the treatment of levodopa-induced dyskinesias” (Northwestern University, priority 2016, dated 2022).
“Also recorded” adds a separate entry of the source.

Legend:
iSPNs = test: Patch-clamp recording of LTD induction in striatal slices from 6-OHDA lesioned animals; design: species or system Mouse; settings: dyskinetic ON-state after L-DOPA
Method: (§1) Mice were deeply anesthetized intraperitoneally with a mixture of ketamine and xylazine. Parasagittal slices were cut in ice-cold aCSF. Whole-cell and perforated-patch recordings were performed in the dorsolateral striatum at 30-31° C. […] These protocols consisted of 20-60 trains of five bursts repeated at 0.1 Hz, with each burst composed of three APs preceded with three EPSPs at 50 Hz (pre-post timing pairing, +5 ms) or three APs followed by one EPSP (post-pre timing pairing, −10 ms). To ensure induction of consistent synaptic plasticity, postsynaptic neurons were depolarized to −70 mV from their typical resting membrane potentials (−85 mV) during their induction. GABAA was blocked by the bath application of gabazine (10 μM).
(§2) Data analysis was conducted with Igor Pro 6 and Clampfit 9. EPSP amplitude was calculated from 50 sweeps immediately before the start of induction and 20-30 min after the end of induction. Compiled data were expressed as mean±SEM. Statistical tests were performed using Excel and SigmaStat. Nonparametric Mann-Whitney or Wilcoxon tests were used to assess the experiment results, using a probability threshold of 0.05. Statistical analyses for behavioral data were carried out using Prism 6. Data were analyzed using parametric repeated measure two-way ANOVA followed by post hoc Bonferroni's test.

dSPNs = test: Patch-clamp recording of LTP induction in striatal slices from 6-OHDA lesioned animals; design: species or system Mouse; settings: shortly after the last injection of L-DOPA (ON-state)
Method: as §1, §2

[1] = tested on: unilateral 6-OHDA lesioned mice (L-DOPA-induced dyskinesia); test: Mouse unilateral 6-OHDA model and LID, abnormal involuntary movements (AIMs) scoring; assay type: in vivo
Method: Mouse Unilateral 6-Hydroxydopamine (6-OHDA) Model and LID
Mice were anaesthetized with an isoflurane precision vaporizer, placed in a stereotaxic frame, and a hole was drilled over the medial forebrain bundle. After exposing the skull, 3.5 mg ml^−1 free base 6-OHDA with 0.02% ascorbic acid was injected using a glass micropipette. Three weeks after surgery, the degree of damage to nigrostriatal DA neurons was assessed with a forelimb-use asymmetry test. Striatal sections from a subset of mice were stained with tyrosine hydroxylase to verify successful lesion. One day after the test, mice underwent behavioral testing for abnormal involuntary movements (AIMs) following L-DOPA treatment. Treatment with L-DOPA was given daily for 15 days at the doses of 3 mg kg^−1. Animals were randomly allocated to receive treatment with L-DOPA and vehicle, or L-DOPA and an A2a receptor antagonist.
as §2, with “Nonparametric Mann-Whitney or Wilcoxon tests were used to assess the experiment results, using a probability threshold of 0.05. Statistical analyses for behavioral data were carried out using Prism 6.” left out

N[C@@H](Cc1ccc(O)c(O)c1)C(=O)O [L-DOPA, L-3,4-dihydroxyphenylalanine]
LTD induction in iSPNs (iSPNs): LTD was recovered; also recorded: LTD in iSPNs | LTP induction in dSPNs (dSPNs): LTP was recovered in dSPNs; also recorded: restores LTP in dSPNs

COc1ccc(N2CCOCC2)c2sc(NC(=O)N3CCC(C)(O)CC3)nc12 [tozadenant]
development of LID behaviors ([1]; systemic tozadenant 30 mg/kg 5 hours after L-DOPA doses, L-DOPA 3 mg/kg daily for 15 days, vs L-DOPA+vehicle, p<0.05): reduces the development of LID behaviors | LID scores induced by subsequent doses of L-DOPA (ON-state) ([1]; treated in the LID OFF-state): significantly attenuates LID scores
